In patent US6130053A, “Method for selecting compounds for inhibition of neoplastic lesions” (priority 1999, dated 2000):

Columns and labels:
[1] = tested on: β-catenin in SW480 cells; assay: β-catenin level by Western blot in SW480 cells; assay type: cell-based, human; conditions: 48 hours
Protocol: SW480 cells were treated with exisulind or vehicle (0.1% DMSO) for 48 hours. 50 μg supernatant of each cell lysates were loaded to 10% SDS-gel and blotted to nitrocellulose membrane, and the membrane was probed with rabbit-anti-β-catenin and rabbit anti-PKG antibodies.
This observation was made by culturing SW480 cells with either 200-600 μM exisulind or vehicle (0.1% DMSO). The cells are harvested 48 hours post treatment and processed for immunoblotting. Immuno-reactive protein can be detected by western blot. […] Thus, using PKG activity in neoplastia as a screening tool to select compounds as anti-neoplastics is useful.

[2] = target: T1, COX-I (purified cyclooxygenase Type 1) (Ovis aries, UniProt P05979); assay: COX inhibition assay, purified cyclooxygenase (Type 1); assay type: biochemical, ram; conditions: FIG. 4
T1 construct: purified cyclooxygenase from ram seminal vesicles; from tissue; host or cells: ram seminal vesicles
T1 sequence (P05979 25-600): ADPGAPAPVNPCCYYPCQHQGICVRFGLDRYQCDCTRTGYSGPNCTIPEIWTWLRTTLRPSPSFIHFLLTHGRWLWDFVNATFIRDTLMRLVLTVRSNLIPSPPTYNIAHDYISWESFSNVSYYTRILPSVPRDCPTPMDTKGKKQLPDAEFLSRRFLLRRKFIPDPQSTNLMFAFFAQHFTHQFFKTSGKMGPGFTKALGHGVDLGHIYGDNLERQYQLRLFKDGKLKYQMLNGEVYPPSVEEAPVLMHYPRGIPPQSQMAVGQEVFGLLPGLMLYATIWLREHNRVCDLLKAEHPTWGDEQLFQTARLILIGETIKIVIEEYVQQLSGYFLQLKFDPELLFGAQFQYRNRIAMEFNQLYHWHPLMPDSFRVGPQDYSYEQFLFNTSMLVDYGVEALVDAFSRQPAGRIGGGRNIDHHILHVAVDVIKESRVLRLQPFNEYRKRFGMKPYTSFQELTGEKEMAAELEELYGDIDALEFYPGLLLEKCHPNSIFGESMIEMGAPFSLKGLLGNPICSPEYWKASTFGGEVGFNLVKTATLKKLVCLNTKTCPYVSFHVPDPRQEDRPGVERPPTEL

[3] = tested on: polyp formation in adenomatous polyposis coli patients; assay: Human clinical study in APC patients, polyp formation; assay type: in vivo
Protocol: A human clinical study was performed in APC patients, selecting exisulind in each instance. In that study, each patient had already had his/her colon removed, except for a small section of colon adjacent the rectum (where the small intestine was attached) to preserve rectal function. However, such a patient commonly forms polyps in the small remaining colonic section, which polyps require periodic removal (e.g., by electrocautery).
That trial where exisulind was selected was a prevention trial designed to compare the cumulative number of new polyps formed over twelve months by the drug and placebo groups. Eligible patients were those who form between 9 and 44 polyps per year. Patients were fully ablated (had all polyps removed) at the start of the study, at the end of 6 months and at the end of 12 months. The study enrolled thirty-four eligible patients. […] Based on the median number of polyps produced in the first six months of the study, patients treated with exisulind developed approximately one-third the number of polyps as patients treated with placebo (median values 9 polyps/year and 26 polyps/year, respectively; p=0.013). Based on the median number of polyps produced over the entire 12 months of the study, patients treated with exisulind produced approximately half the number of polyps as patients treated with placebo (median values 18 polyps/year and 38 polyps/year, respectively; p=0.020).

[4] = tested on: PKG in SW480 cells; assay: PKG expression by Western blot in SW480 cells; assay type: cell-based, human; conditions: 48 hours
Protocol: This increase in PKG protein expression was further verified by relatively quantative western blot, as described below.
SW480 cells treated with exisulind as described previously are harvested from the microfuge tubes by rinsing once with ice-cold PBS. The cells are lysed by modified RIPA buffer for 15 minutes with agitation. The cell lysate is spun down in a cold room. The supernatants are transferred to fresh microcentrifuge tubes immediately after spinning. BioRad DC Protein Assay (Temecula, Calif.) is performed to determine the protein concentrations in samples. The samples are normalized for protein concentration, as described above.
50 μg of each sample is loaded to 10% SDS gel. SDS-PAGE is performed, and the proteins then are transferred to a nitrocellulose membrane. The blotted nitrocellulose membrane are blocked in freshly prepared TBST containing 5% nonfat dry milk for one hour at room temperature with constant agitation.
A goat-anti-PKG primary antibody is diluted to the recommended concentration/dilution in fresh TBST/5% nonfat dry milk. The nitrocellulose membrane is placed in the primary antibody solution and incubated one hour at room temperature with agitation. The nitrocellulose membrane is washed three times for ten minutes each with TBST. […]

[5] = tested on: PKG activity in HCT116 cells; assay: PKG activity in HCT116 cells; assay type: cell-based
Description: To test the effect of cGMP-specific PDE inhibition on neoplasia containing the β-catenin mutation, HCT116 colon cancer cells were employed. HCT116 is known to contain the β-catenin mutation, but is known not to contain the APC mutation.
The same procedure is used to grow the HCT116 cells as is used in the SW480 procedure described above. In this experiment, only exisulind and controls were used.

[6] = tested on: cGMP PDE; assay: cGMP PDE inhibition assay, enzyme purified from HT-29 cultured tumor cells; assay type: biochemical, human
Protocol: The mixture is incubated at 30° C. for 10 minutes with isolated PDE of this invention. Reactions are terminated, for example, by boiling the reaction mixture for 75 seconds. After cooling on ice, 100 μl of 0.5 mg/ml snake venom (O. Hannah venom available from Sigma) is added and incubated for 10 minutes at 30° C. This reaction is then terminated by the addition of an alcohol, e.g. 1 ml of 100% methanol. Assay samples are applied to 1 ml Dowex 1-X8 column; and washed with 1 ml of 100% methanol. The amount of radioactivity in the breakthrough and the wash from the column is combined and measured with a scintillation counter. The degree of phosphodiesterase inhibition is determined by calculating the amount of radioactivity in drug-treated reactions and comparing against a control sample (a reaction mixture lacking the tested compound but with drug solvent).

Compound: CC1=C(CC(=O)O)c2cc(F)ccc2/C1=C\c1ccc(S(C)(=O)=O)cc1 [Exisulind, 5-fluoro-2-methyl-1-(p-methylsulfonylbenzylidene)-3-indenylacetic acid]
- β-catenin level by Western blot [1]: drop of β-catenin
- IC50 [2]: > 10 mM
- number of polyps relative to placebo, 12 months ([3]; entire 12 months): approximately half
- median number of polyps, 12 months ([3]; entire 12 months, placebo 38 polyps/year): 18 polyps/year
- number of polyps relative to placebo, first six months ([3]; first six months): approximately one-third
- median number of polyps, first six months ([3]; first six months, placebo 26 polyps/year): 9 polyps/year
- decrease of rate of polyp formation ([3]; vs placebo): clinically and statistically significantly better than placebo in decreasing the rate of polyp formation
- PKG level by Western blot [4]: increase of PKG
- PKG activity relative to control [5]: phosphorylated to a greater extent than the corresponding controls
- selectivity cGMP PDE over PDE4 [6]: selectivity for the cGMP PDE isoenzyme forms over PDE4 isoforms
